Measured values reported in patent US20250313546A1, “NUCLEIC ACID BINDERS” (UNIVERSITY OF STRATHCLYDE, priority 2022, published 2025).
Values after ≈ are worked out from the molar mass of the structure shown.

Experiments:
[1] = test system: C. krusei; test: Expanded set of yeasts, MIC broth microdilution (CLSI); assay type: cell-based; settings: Pichia kudriavzevii, ATCC6258; isolate ATCC 6258; MIC at 50% inhibition
[2] = test system: C. glabrata; test: as above; assay type: cell-based; settings: Nakaseomyces glabratus, MIC at 50% inhibition
[3] = test system: A. flavus (CBS 128.202); settings: Aspergillus flavus, CBS128, read-out: MIC99 A. flavus
Protocol: (§1) The Minimum Inhibitory Concentration (MIC, at 99% inhibition) of the compounds was determined using the broth microdilution method as recommended by EUCAST (EUCAST Definitive Document E.DEF 9.3.2, Method for the determination of broth dilution minimum inhibitory concentrations of antifungal agents for conidia forming moulds and EUCAST Definitive Document E.DEF 7.3.2 Method for the determination of broth dilution minimum inhibitory concentrations of antifungal agents for yeasts).

[4] = test system: A. fumigatus A1160 (MFIG001); settings: Aspergillus fumigatus, read-out: MIC99 A. fumigatus A1160
[5] = test system: C. albicans (ATCC 90028); settings: Candida albicans, ATCC90028, read-out: MIC99 C. albicans
Protocol: as §1

[6] = test system: Aspergillus flavus; test: Expanded set of filamentous fungi, MIC broth microdilution (CLSI); assay type: cell-based; settings: MIC at 50% inhibition; for MIC50: Aspergillus flavus; for MIC50 Aspergillus flavus: isolate Aflav3
[7] = test system: C. auris; test: Expanded set of yeasts, MIC broth microdilution (CLSI); assay type: cell-based; settings: MIC at 50% inhibition; for MIC50: Candidozyma auris, isolate DI17-47
[8] = test system: SARS-CoV-2 (hCoV-19/Australia/VIC01/2020); test: SARS-CoV-2 microplaque inhibition assay in Vero-E6 cells; assay type: cell-based
[9] = In vivo pharmacokinetics mouse model (distribution and tolerability); set-up: species or system male CD-1 mice
Protocol: The procedure used for in vivo pharmacokinetics experiments is described below.
1 mL of 2 mg/mL stock solution was prepared by adding 500 μL of DMSO to 2 mg of compound and vortexed well until the compound had fully dissolved. 500 μL of Saline for Injection (SFI, warmed to 37° C.) was added dropwise, under vortexing.
Working Solutions Immediately prior to dosing, the 2 mg/mL stock solution was diluted 1:5 to produce 0.4 mg/mL dosing solution. 2 mL of 0.4 mg/mL solution was prepared by adding 400 μL of […] stock solution to 1600 μL diluent (10% DMSO, 90% SFI).
The dosing solution was administered to 7 male CD-1 mice, at 5 mL/kg via intravenous (IV) injection (e.g. 30 g mouse with 150 μL). 3 mice were grouped for the blood sampling study and 4 mice were grouped for the tissue sampling study.
At each time point (0.5, 2, 4, 8 hours), 20 μL blood samples were collected from mice by tail prick into 20 μL EDTA blood collection capillary tubes on wet ice. 20 μL blood samples were added directly to the appropriate well of a 96 deep well plate and mixed with 20 μL of distilled water and the samples stored at −80° C. prior to bioanalysis.
At each time point (0.25 and 1 hour), the lung, both kidneys and the liver (left lateral lobe) were removed from culled mice (two per time point) and individually placed in pre-weighed bead beater tubes, which were then weighed to determine tissue weight. 4× weight/volume sterile water was added to the tissue. Tissues were homogenized in a Precellys bead beater then snap frozen at […] until bioanalysis.
Initial stock of Ia10 was made to 1 mg/mL in DMSO. Calibration and quality controls were made by spiking 1 mg/mL DMSO stock into desired matrix and serial dilution in matrix to desired concentration. Calibration range=1 ng/mL-5000 ng/mL. All samples were crashed out in 5× volume of Acetonitrile. Samples were centrifuged and supernatant diluted 1:3 in water to be analysed on LCMS.
Compound Ia10 has been evaluated in an in vivo pharmacokinetics mouse model in order to investigate compound distribution and tolerability.

[10] = ATCC204304, isolate ATCC 204304

SMILES	MIC50 [1] [µg/mL]	MIC50 ([2]; isolate 05-62) [µg/mL]	MIC50 ([2]; isolate 05-761) [µg/mL]	MIC50 ([2]; isolate CG3) [µg/mL]	MIC99 [3] [µg/mL]	MIC99 [4] [µg/mL]	MIC99 [5] [µg/mL]	MIC50 [6, 10] [µg/mL]	MIC50 ([6]; isolate Aflav2) [µg/mL]	MIC50 Aspergillus flavus [6]	MIC50 [7] [µg/mL]	MIC50 C. auris ([7]; isolate DI17-46)	MIC50 C. auris ([7]; isolate DI17-48)	SARS-CoV-2 Selectivity Indices, Group ([8]; SI, IC50 (μM)/IC50 (μM), HEK293 cytotoxicity, Alkyl Amidines and NH Pyrroles)	IC50 ([8]; Severe acute respiratory syndrome coronavirus 2, Vero C1008, plaque inhibition, Vero-E6 cells, read-out: IC50 SARS-CoV-2) [µM]	Blood conc @ 1 Hr ([9]; 2 mg/kg IV dose in mice, blood, 1 Hr) [nM]	Lung conc @ 1 Hr ([9]; 2 mg/kg IV dose in mice, lung, 1 Hr) [µM]	Accumulation in lung tissue ([9]; 2 mg/kg IV in mice)	Tolerability ([9]; 2 mg/kg IV in mice (higher doses were not investigated))	Kp at 1 h ([9]; male, CD-1, mouse, lung vs whole blood, 2 mg/kg IV dose in mice, lung vs blood at 1 Hr, read-out: Lung accumulation factor)
C/N=C(\CCNC(=O)c1cc(NC(=O)c2cc(NC(=O)c3ccc(/C=C/c4ccc(N(C)C)cc4)nc3)cn2C)cn1C)NC [Ia8, 6-((E)-4-(dimethylamino)styryl)-N-(1-methyl-5-((1-methyl-5-(((E)-3-(methylamino)-3-(methylimino)propyl)carbamoyl)-1H-pyrrol-3-yl)carbamoyl)-1H-pyrrol-3-yl)nicotinamide]	1 to 8 (≈ 1.64 to 13.1 µM)	1 to 8 (≈ 1.64 to 13.1 µM)	1 to 8 (≈ 1.64 to 13.1 µM)	1 to 8 (≈ 1.64 to 13.1 µM)	< 5	5 to 25 (≈ 8.2 to 41 µM)	25 to 50 (≈ 41 to 82 µM)	1 to 8 (≈ 1.64 to 13.1 µM)	1 to 8 (≈ 1.64 to 13.1 µM)	** (** means 1 μg/mL < MIC50 <= 8 μg/mL)	1 to 8 (≈ 1.64 to 13.1 µM)	** (** means 1 μg/mL < MIC50 <= 8 μg/mL)	** (** means 1 μg/mL < MIC50 <= 8 μg/mL)							
[H]/N=C(\CCNC(=O)c1cc(NC(=O)c2cc(NC(=O)c3ccc(C=Cc4ccc(N(C)C)cc4)nc3)cn2C)cn1C)NC [Ia9, (E)-6-(4-(dimethylamino)styryl)-N-(5-((5-((3-imino-3-(methylamino)propyl)carbamoyl)-1-methyl-1H-pyrrol-3-yl)carbamoyl)-1-methyl-1H-pyrrol-3-yl)nicotinamide]	1 to 8 (≈ 1.68 to 13.4 µM)	1 to 8 (≈ 1.68 to 13.4 µM)	≤ 1	1 to 8 (≈ 1.68 to 13.4 µM)	5 to 25 (≈ 8.39 to 42 µM)	5 to 25 (≈ 8.39 to 42 µM)	5 to 25 (≈ 8.39 to 42 µM)	1 to 8 (≈ 1.68 to 13.4 µM)	1 to 8 (≈ 1.68 to 13.4 µM)	** (** means 1 μg/mL < MIC50 <= 8 μg/mL)	1 to 8 (≈ 1.68 to 13.4 µM)	** (** means 1 μg/mL < MIC50 <= 8 μg/mL)	** (** means 1 μg/mL < MIC50 <= 8 μg/mL)	B (Group B: 4.1 < SI <= 10)	2 to 8					
C/N=C(/CCNC(=O)c1cc(NC(=O)c2cc(NC(=O)c3ccc(/C=C/c4cnc5ccccc5c4)cc3)cn2C)cn1C)NC [Ia10, 1-methyl-4-(1-methyl-4-(4-((E)-2-(quinolin-3-yl)vinyl)benzamido)-1H-pyrrole-2-carboxamido)-N—((Z)-3-(methylamino)-3-(methylimino)propyl)-1H-pyrrole-2-carboxamide]	≤ 1	≤ 1	≤ 1	≤ 1	< 5	< 5	5 to 25 (≈ 8.11 to 40.5 µM)	≤ 1	≤ 1	*** (*** means MIC50 <= 1 μg/mL)	1 to 8 (≈ 1.62 to 13 µM)	** (** means 1 μg/mL < MIC50 <= 8 μg/mL)	** (** means 1 μg/mL < MIC50 <= 8 μg/mL)			204	28.968	remarkable accumulation in lung tissue	well tolerated	~142
